Results as given in PubChem BioAssay (NCI).
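GI50 is the concentration that inhibits growth by half. TGI denotes the concentration required for complete inhibition of growth.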

Key:
Test in all cases: NCI tumour cell line growth inhibition, 384-well format
SNB-19 CNS = test system: SNB-19 CNS
DU-145 prostate = test system: DU-145 prostate
U251 glioblastoma = test system: U251 glioblastoma
MDA-MB-435 melanoma = test system: MDA-MB-435 melanoma
EKVX NSCLC = test system: EKVX NSCLC
HOP-92 NSCLC = test system: HOP-92 NSCLC
SK-MEL-5 melanoma = test system: SK-MEL-5 melanoma
MDA-MB-468 breast = test system: MDA-MB-468 breast
UACC-62 melanoma = test system: UACC-62 melanoma
M14 melanoma = test system: M14 melanoma
OVCAR-4 ovarian = test system: OVCAR-4 ovarian
OVCAR-8 ovarian = test system: OVCAR-8 ovarian
HS 578T breast = test system: HS 578T breast
NCI-H522 lung = test system: NCI-H522 lung
MALME-3M melanoma = test system: MALME-3M melanoma
NCI-H23 lung = test system: NCI-H23 lung
NCI-H226 lung = test system: NCI-H226 lung
SF-268 CNS = test system: SF-268 CNS
PC-3 prostate = test system: PC-3 prostate
HL-60(TB) leukemia = test system: HL-60(TB) leukemia
TK-10 renal = test system: TK-10 renal
RPMI-8226 leukemia = test system: RPMI-8226 leukemia
SK-OV-3 ovarian = test system: SK-OV-3 ovarian
HCT-116 colon = test system: HCT-116 colon
MOLT-4 leukemia = test system: MOLT-4 leukemia
786-0 renal = test system: 786-0 renal
UACC-257 melanoma = test system: UACC-257 melanoma
MCF7 breast = test system: MCF7 breast
ACHN renal = test system: ACHN renal
SW-620 colon = test system: SW-620 colon
SF-539 CNS = test system: SF-539 CNS
SK-MEL-28 melanoma = test system: SK-MEL-28 melanoma
CCRF-CEM leukemia = test system: CCRF-CEM leukemia
SR leukemia = test system: SR leukemia
OVCAR-3 ovarian = test system: OVCAR-3 ovarian
SNB-75 CNS = test system: SNB-75 CNS
LOX IMVI melanoma = test system: LOX IMVI melanoma
T-47D breast = test system: T-47D breast
HCT-15 colon = test system: HCT-15 colon
KM12 colon = test system: KM12 colon
A549 NSCLC = test system: A549 NSCLC
SN12C renal = test system: SN12C renal
A498 renal = test system: A498 renal
RXF 393 renal = test system: RXF 393 renal
UO-31 renal = test system: UO-31 renal
OVCAR-5 ovarian = test system: OVCAR-5 ovarian
CAKI-1 renal = test system: CAKI-1 renal
NCI/ADR-RES ovarian = test system: NCI/ADR-RES ovarian
NCI-H460 NSCLC = test system: NCI-H460 NSCLC
NCI-H322M lung = test system: NCI-H322M lung
HOP-62 NSCLC = test system: HOP-62 NSCLC
IGROV1 ovarian = test system: IGROV1 ovarian
BT-549 breast = test system: BT-549 breast
SF-295 CNS = test system: SF-295 CNS

COc1ccc(CN2C3CC2CN(c2ccc(-c4cc(OCC(C)(C)O)cn5ncc(C#N)c45)cn2)C3)cn1
GI50 (SNB-19 CNS): > 100 µM
TGI (SNB-19 CNS): > 100 µM
GI50 (DU-145 prostate): 28.3 µM
TGI (DU-145 prostate): > 100 µM
GI50 (U251 glioblastoma): > 31.6 µM
TGI (U251 glioblastoma): > 31.6 µM
GI50 (MDA-MB-435 melanoma): > 100 µM
TGI (MDA-MB-435 melanoma): > 100 µM
GI50 (EKVX NSCLC): > 31.6 µM
TGI (EKVX NSCLC): > 31.6 µM
GI50 (HOP-92 NSCLC): 2.92 µM
TGI (HOP-92 NSCLC): 38.1 µM
GI50 (SK-MEL-5 melanoma): > 31.6 µM
TGI (SK-MEL-5 melanoma): > 31.6 µM
GI50 (MDA-MB-468 breast): 5.75 µM
TGI (MDA-MB-468 breast): 9.04 µM
GI50 (UACC-62 melanoma): 98.7 µM
TGI (UACC-62 melanoma): > 100 µM
GI50 (M14 melanoma): > 82 µM
TGI (M14 melanoma): > 100 µM
GI50 (OVCAR-4 ovarian): 5.26 µM
TGI (OVCAR-4 ovarian): > 100 µM
GI50 (OVCAR-8 ovarian): 22.3 µM
TGI (OVCAR-8 ovarian): > 31.6 µM
GI50 (HS 578T breast): 6.92 µM
TGI (HS 578T breast): > 50.1 µM
GI50 (NCI-H522 lung): 7.9 µM
TGI (NCI-H522 lung): > 31.6 µM
GI50 (MALME-3M melanoma): > 28.9 µM
TGI (MALME-3M melanoma): > 100 µM
GI50 (NCI-H23 lung): 8.4 µM
TGI (NCI-H23 lung): 27.8 µM
GI50 (NCI-H226 lung): 2.94 µM
TGI (NCI-H226 lung): 15.4 µM
GI50 (SF-268 CNS): > 26.8 µM
TGI (SF-268 CNS): > 100 µM
GI50 (PC-3 prostate): > 100 µM
TGI (PC-3 prostate): > 100 µM
GI50 (HL-60(TB) leukemia): 4.36 µM
TGI (HL-60(TB) leukemia): 11.5 µM
GI50 (TK-10 renal): > 31.6 µM
TGI (TK-10 renal): > 31.6 µM
GI50 (RPMI-8226 leukemia): > 28.8 µM
TGI (RPMI-8226 leukemia): > 31.6 µM
GI50 (SK-OV-3 ovarian): 24.3 µM
TGI (SK-OV-3 ovarian): > 31.6 µM
GI50 (HCT-116 colon): 24.2 µM
TGI (HCT-116 colon): > 100 µM
GI50 (MOLT-4 leukemia): 1.58 µM
TGI (MOLT-4 leukemia): 3.13 µM
GI50 (786-0 renal): 57.3 µM
TGI (786-0 renal): > 100 µM
GI50 (UACC-257 melanoma): > 31.6 µM
TGI (UACC-257 melanoma): > 31.6 µM
GI50 (MCF7 breast): > 31.6 µM
TGI (MCF7 breast): > 31.6 µM
GI50 (ACHN renal): 25.4 µM
TGI (ACHN renal): > 100 µM
GI50 (SW-620 colon): 4.99 µM
TGI (SW-620 colon): > 100 µM
GI50 (SF-539 CNS): 2.08 µM
TGI (SF-539 CNS): 6.86 µM
GI50 (SK-MEL-28 melanoma): > 100 µM
TGI (SK-MEL-28 melanoma): > 100 µM
GI50 (CCRF-CEM leukemia): 1.99 µM
TGI (CCRF-CEM leukemia): 3.76 µM
GI50 (SR leukemia): 1.64 µM
TGI (SR leukemia): 3.24 µM
GI50 (OVCAR-3 ovarian): > 28.5 µM
TGI (OVCAR-3 ovarian): > 100 µM
GI50 (SNB-75 CNS): 1.85 µM
TGI (SNB-75 CNS): 7.29 µM
GI50 (LOX IMVI melanoma): 50.8 µM
TGI (LOX IMVI melanoma): > 100 µM
GI50 (T-47D breast): > 31.6 µM
TGI (T-47D breast): > 31.6 µM
GI50 (HCT-15 colon): 9.55 µM
TGI (HCT-15 colon): > 31.6 µM
GI50 (KM12 colon): > 100 µM
TGI (KM12 colon): > 100 µM
GI50 (A549 NSCLC): 7.53 µM
TGI (A549 NSCLC): > 31.6 µM
GI50 (SN12C renal): 2.44 µM
TGI (SN12C renal): > 45.8 µM
GI50 (A498 renal): > 38.3 µM
TGI (A498 renal): > 100 µM
GI50 (RXF 393 renal): 4.29 µM
TGI (RXF 393 renal): 7.91 µM
GI50 (UO-31 renal): > 100 µM
TGI (UO-31 renal): > 100 µM
GI50 (OVCAR-5 ovarian): > 100 µM
TGI (OVCAR-5 ovarian): > 100 µM
GI50 (CAKI-1 renal): 5.02 µM
TGI (CAKI-1 renal): > 100 µM
GI50 (NCI/ADR-RES ovarian): 21.4 µM
TGI (NCI/ADR-RES ovarian): > 100 µM
GI50 (NCI-H460 NSCLC): 5.11 µM
TGI (NCI-H460 NSCLC): > 100 µM
GI50 (NCI-H322M lung): > 74 µM
TGI (NCI-H322M lung): > 100 µM
GI50 (HOP-62 NSCLC): 8.51 µM
TGI (HOP-62 NSCLC): > 31.6 µM
GI50 (IGROV1 ovarian): 7.33 µM
TGI (IGROV1 ovarian): > 60 µM
GI50 (BT-549 breast): 1.87 µM
TGI (BT-549 breast): 7.68 µM
GI50 (SF-295 CNS): 5.36 µM
TGI (SF-295 CNS): 9.56 µM
